Assay results from publication PMC11489721 (Communications Chemistry, 2024).
pEC50, pKi: −log10 of the molar value.

How the values were obtained:
[1] = target: T1, heterodimeric receptor (T1R2/T1R3) (Homo sapiens, UniProt Q7RTX0+Q8TE23); experiment: Competition binding with [14C]-sucrose as radioligand
T1 sequence (Q8TE23 20-839): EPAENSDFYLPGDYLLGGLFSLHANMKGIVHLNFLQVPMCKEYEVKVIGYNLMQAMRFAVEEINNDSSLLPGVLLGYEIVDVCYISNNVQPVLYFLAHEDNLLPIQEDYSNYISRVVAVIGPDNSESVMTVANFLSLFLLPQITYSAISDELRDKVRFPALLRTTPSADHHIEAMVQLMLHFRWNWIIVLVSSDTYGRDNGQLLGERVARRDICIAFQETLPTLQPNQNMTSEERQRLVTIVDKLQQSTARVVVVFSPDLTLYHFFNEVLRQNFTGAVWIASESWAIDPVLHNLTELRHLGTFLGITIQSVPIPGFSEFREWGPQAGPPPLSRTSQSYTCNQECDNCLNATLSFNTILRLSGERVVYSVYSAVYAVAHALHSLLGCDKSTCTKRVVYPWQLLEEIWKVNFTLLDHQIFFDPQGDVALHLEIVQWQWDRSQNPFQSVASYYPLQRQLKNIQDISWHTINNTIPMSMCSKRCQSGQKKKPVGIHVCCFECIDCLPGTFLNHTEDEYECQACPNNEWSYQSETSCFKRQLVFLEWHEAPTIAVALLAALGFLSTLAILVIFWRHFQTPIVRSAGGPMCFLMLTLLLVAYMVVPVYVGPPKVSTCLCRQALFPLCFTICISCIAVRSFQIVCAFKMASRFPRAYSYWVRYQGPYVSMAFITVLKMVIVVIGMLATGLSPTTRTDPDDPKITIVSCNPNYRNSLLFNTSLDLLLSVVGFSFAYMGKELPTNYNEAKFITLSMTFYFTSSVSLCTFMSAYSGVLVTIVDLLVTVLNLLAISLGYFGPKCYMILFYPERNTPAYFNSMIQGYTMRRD
T1 sequence (Q7RTX0 21-852): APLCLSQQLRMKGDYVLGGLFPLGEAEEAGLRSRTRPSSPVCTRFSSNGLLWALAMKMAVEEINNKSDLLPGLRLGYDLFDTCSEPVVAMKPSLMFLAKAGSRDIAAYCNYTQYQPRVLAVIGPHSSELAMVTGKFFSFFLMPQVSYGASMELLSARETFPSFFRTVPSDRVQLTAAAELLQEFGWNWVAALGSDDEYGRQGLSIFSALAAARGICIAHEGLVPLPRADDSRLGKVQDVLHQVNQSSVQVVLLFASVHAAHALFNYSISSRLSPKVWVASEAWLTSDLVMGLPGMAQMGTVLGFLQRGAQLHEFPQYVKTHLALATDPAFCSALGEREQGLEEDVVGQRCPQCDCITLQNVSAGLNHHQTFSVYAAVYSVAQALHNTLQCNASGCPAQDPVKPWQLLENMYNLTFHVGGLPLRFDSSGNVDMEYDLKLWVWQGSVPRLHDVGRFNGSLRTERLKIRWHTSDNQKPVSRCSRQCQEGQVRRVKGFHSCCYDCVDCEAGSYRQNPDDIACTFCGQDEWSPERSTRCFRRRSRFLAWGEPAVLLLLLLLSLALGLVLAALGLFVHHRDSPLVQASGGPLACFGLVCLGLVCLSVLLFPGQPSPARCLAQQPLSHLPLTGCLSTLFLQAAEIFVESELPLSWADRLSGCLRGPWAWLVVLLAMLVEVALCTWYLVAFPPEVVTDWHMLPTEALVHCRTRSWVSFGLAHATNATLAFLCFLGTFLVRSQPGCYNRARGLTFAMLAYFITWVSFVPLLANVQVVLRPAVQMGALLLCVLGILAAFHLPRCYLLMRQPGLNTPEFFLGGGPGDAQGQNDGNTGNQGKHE

[2] = target: human T1R2/T1R3 sweet taste receptor; conditions: HEK293 stably expressing T1R2/T1R3, FLIPR calcium mobilization; cited from earlier work
[3] = target: T2, heterodimeric receptor (T1R2/T1R3), TMD3 binding site (Homo sapiens, UniProt Q7RTX0+Q8TE23); experiment: Competition binding with [3H]-lactisole as radioligand
T2 sequence (Q8TE23 20-839): T1 sequence (Q8TE23 20-839)
T2 sequence (Q7RTX0 21-852): T1 sequence (Q7RTX0 21-852)

[4] = target: T3, heterodimeric receptor (T1R2/T1R3), TMD2 binding site (Homo sapiens, UniProt Q7RTX0+Q8TE23); experiment: Competition binding with [3H]-Perillartine as radioligand; conditions: radioligand [3H]-Perillartine
T3 sequence (Q8TE23 20-839): T1 sequence (Q8TE23 20-839)
T3 sequence (Q7RTX0 21-852): T1 sequence (Q7RTX0 21-852)

[5] = target: T4, heterodimeric receptor (T1R2/T1R3), presumed VFD2 binding site (Homo sapiens, UniProt Q7RTX0+Q8TE23); experiment: Competition binding with [3H]-Rebaudioside B as radioligand
T4 sequence (Q8TE23 20-839): T1 sequence (Q8TE23 20-839)
T4 sequence (Q7RTX0 21-852): T1 sequence (Q7RTX0 21-852)

- pKi [1]: 1.87
- Ki ([3]; Ki (mM), radiolabeled ligand lactisole, TMD3 binding, Table 4): 0.33 mM
- pKi ([3]; Ki, radiolabeled ligand lactisole): 3.48
- Competitive inhibition with lactisole ([3]; radioligand [3H]-lactisole): inhibition
- Competitive inhibition with perillartine [4]: high levels of inhibition
- pKi [5]: 1.20
- Competitive inhibition with RebB ([5]; radioligand [3H]-Rebaudioside B): positive inhibition
Compound: COc1ccc(CCC(=O)c2c(O)cc(O[C@@H]3O[C@H](CO)[C@@H](O)[C@H](O)[C@H]3O[C@@H]3O[C@@H](C)[C@H](O)[C@@H](O)[C@H]3O)cc2O)cc1O [NHDC, Neohesperidin Dihydrochalcone]
- pEC50 [2]: 4.99
